Results published in PubChem BioAssay AID328 (DTP/NCI, 2004).
Several values for one entry are separate records, joined by “and”; a condition that tells them apart may be missing. Identical values can stand only once. Toxic doses and inconclusive results are not listed. Non-standard residues stand in square brackets, D forms with d. Residues, ends and D or L forms follow the SMILES beside them. ξ: configuration not given here. *: point of attachment. Nphe = O=C(O)CNCc1ccccc1; ξL = CC(C)CC(N)C(=O)O; Ms = CS(=O)(=O)*

System: BDF1 mice, P388 leukemia ip, median survival T/C
Test: NCI In Vivo Anticancer Drug Screen. Data for tumor model P388 Leukemia (intraperitoneal) in B6D2F1 (BDF1) mice
Details: endpoint: median survival time, higher = longer survival
Procedure, shortened: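 Each value expresses how treatment altered survival: treated-mouse outcome over vehicle-mouse outcome, both groups bearing the transplanted tumour.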

[1] = dose: 25.0 mg/kg/injection, schedule: Q01DX009 (ip), vehicle: Klucel (hydroxypropylcellulose) (HPC)
[2] = dose: 25.0 mg/kg/injection, schedule: Q01DX009 (ip), vehicle: saline with Tween-80
[3] = dose: 25.0 mg/kg/injection, schedule: Q01DX009 (ip), vehicle: saline
[4] = dose: 50.0 mg/kg/injection, schedule: Q01DX009 (ip), vehicle: saline
[5] = dose: 100.0 mg/kg/injection, schedule: Q01DX009 (ip), vehicle: Klucel (hydroxypropylcellulose) (HPC)
[6] = dose: 100.0 mg/kg/injection, schedule: Q01DX009 (ip), vehicle: saline
[7] = dose: 6.25 mg/kg/injection, schedule: Q04DX003 (ip), vehicle: other
[8] = dose: 12.5 mg/kg/injection, schedule: Q04DX003 (ip), vehicle: other
[9] = dose: 25.0 mg/kg/injection, schedule: Q04DX003 (ip), vehicle: other
[10] = dose: 200.0 mg/kg/injection, schedule: Q01DX009 (ip), vehicle: Klucel (hydroxypropylcellulose) (HPC)
[11] = dose: 400.0 mg/kg/injection, schedule: Q01DX009 (ip), vehicle: Klucel (hydroxypropylcellulose) (HPC)
[12] = dose: 100.0 mg/kg/injection, schedule: Q04DX003 (ip), vehicle: saline
[13] = dose: 200.0 mg/kg/injection, schedule: Q01DX009 (ip), vehicle: saline
[14] = dose: 200.0 mg/kg/injection, schedule: Q04DX003 (ip), vehicle: saline
[15] = dose: 400.0 mg/kg/injection, schedule: Q01DX009 (ip), vehicle: saline
[16] = dose: 400.0 mg/kg/injection, schedule: Q04DX003 (ip), vehicle: saline
[17] = dose: 6.25 mg/kg/injection, schedule: Q01DX009 (ip), vehicle: saline with Tween-80
[18] = dose: 12.5 mg/kg/injection, schedule: Q01DX009 (ip), vehicle: saline with Tween-80
[19] = dose: 25.0 mg/kg/injection, schedule: Q04DX003 (ip), vehicle: saline with Tween-80

For `NC(=O)C(Br)CBr` (stereo unspecified), the T/C (dose: 1.5 mg/kg/injection, schedule: Q01DX009 (ip), vehicle: saline with Tween-80) was 103 % of control, the T/C (dose: 3.0 mg/kg/injection, schedule: Q01DX009 (ip), vehicle: saline with Tween-80) was 98 % of control and the T/C (dose: 12.0 mg/kg/injection, schedule: Q01DX009 (ip), vehicle: saline with Tween-80) was 107 % of control and 115 % of control. For the same compound, the T/C [1] was 114 % of control, the T/C [2] was 105 % of control and the T/C [3] was 99 % of control. The T/C (dose: 50.0 mg/kg/injection, schedule: Q01DX009 (ip), vehicle: Klucel (hydroxypropylcellulose) (HPC)) was 94 % of control, the T/C [4] was 99 % of control and the T/C [5] was 114 % of control. For the same compound, the T/C [6] was 92 % of control.

`O=[N+]([O-])c1cc(S(=O)(=O)OCC2CO2)ccc1Cl` (stereo unspecified) was tested, and the T/C (dose: 6.25 mg/kg/injection, schedule: Q01DX009 (ip), vehicle: Klucel (hydroxypropylcellulose) (HPC)) was 100 % of control, the T/C (dose: 12.0 mg/kg/injection, schedule: Q04DX003 (ip), vehicle: Klucel (hydroxypropylcellulose) (HPC)) was 95 % of control and the T/C (dose: 12.5 mg/kg/injection, schedule: Q01DX009 (ip), vehicle: Klucel (hydroxypropylcellulose) (HPC)) was 105 % of control. The T/C [1] was 120 % of control and the T/C (dose: 100.0 mg/kg/injection, schedule: Q04DX003 (ip), vehicle: Klucel (hydroxypropylcellulose) (HPC)) was 108 % of control.

With `CCCCNC(C)(C)C(SS)c1ccc(C(F)(F)F)cc1` (stereo unspecified) the T/C [7] was 100 % of control, the T/C [8] was 105 % of control and the T/C [9] was 110 % of control.

In the case of `[N-]=[N+]=CC(=O)NCC(=O)NO`, the T/C (dose: 180.0 mg/kg/injection, schedule: Q01DX009 (ip), vehicle: water) was 172 % of control, the T/C (dose: 270.0 mg/kg/injection, schedule: Q01DX009 (ip), vehicle: water) was 172 % of control and the T/C (dose: 400.0 mg/kg/injection, schedule: Q01DX009 (ip), vehicle: water) was 204 % of control.

In the case of `COc1ccc(-n2c(=O)c(N=Nc3ccccc3)c(O)n(-c3ccc(C)cc3)c2=S)cc1`, the T/C (dose: 50.0 mg/kg/injection, schedule: Q01DX001 (ip), vehicle: saline sonified) was 90 % of control, the T/C (dose: 100.0 mg/kg/injection, schedule: Q01DX001 (ip), vehicle: saline sonified) was 100 % of control and the T/C (dose: 200.0 mg/kg/injection, schedule: Q01DX001 (ip), vehicle: saline sonified) was 100 % of control.

For `C=C(C)[C@@H]1CC[C@]2(CO)CC[C@]3(C)[C@H](CC[C@@H]4[C@@]5(C)CC[C@H](O)C(C)(C)[C@@H]5CC[C@]43C)[C@@H]12`, the T/C (dose: 10.0 mg/kg/injection, schedule: Q01DX009 (ip), vehicle: saline with Tween-80) was 94 % of control, the T/C (dose: 20.0 mg/kg/injection, schedule: Q01DX009 (ip), vehicle: saline with Tween-80) was 99 % of control and the T/C (dose: 40.0 mg/kg/injection, schedule: Q01DX009 (ip), vehicle: saline with Tween-80) was 100 % of control. The T/C (dose: 75.0 mg/kg/injection, schedule: Q01DX009 (ip), vehicle: other) was 97 % of control, the T/C (dose: 80.0 mg/kg/injection, schedule: Q01DX009 (ip), vehicle: saline with Tween-80) was 95 % of control and the T/C [5] was 101 % of control. The T/C (dose: 150.0 mg/kg/injection, schedule: Q01DX009 (ip), vehicle: other) was 106 % of control, the T/C [10] was 98 % of control and the T/C [11] was 111 % of control.

With `CCOc1ccc(Br)cc1/C=C/C(C)=O` the T/C [6] was 109 % of control, the T/C [12] was 112 % of control and the T/C [13] was 95 % of control. The T/C [14] was 95 % of control, the T/C [15] was 104 % of control and the T/C [16] was 100 % of control.

In the case of `CC(C)CC(NC(=O)CN(Cc1ccccc1)S(C)(=O)=O)C(=O)O` (stereo unspecified) (Ms-[Nphe]-[ξL]-OH), the T/C [7] was 110 % of control, the T/C [8] was 97 % of control and the T/C [9] was 113 % of control. The T/C (dose: 50.0 mg/kg/injection, schedule: Q01DX009 (ip), vehicle: other) was 151 % of control, the T/C (dose: 50.0 mg/kg/injection, schedule: Q04DX003 (ip), vehicle: other) was 95 % of control and 98 % of control and the T/C (dose: 100.0 mg/kg/injection, schedule: Q04DX003 (ip), vehicle: other) was 100 % of control and 103 % of control. The T/C (dose: 200.0 mg/kg/injection, schedule: Q01DX009 (ip), vehicle: other) was 89 % of control, the T/C (dose: 200.0 mg/kg/injection, schedule: Q04DX003 (ip), vehicle: other) was 98 % of control and 106 % of control and the T/C (dose: 400.0 mg/kg/injection, schedule: Q04DX003 (ip), vehicle: other) was 106 % of control.

With `O=C1OC2C(I)C3CCC2C1C3` (stereo unspecified) the T/C [6] was 105 % of control, the T/C [12] was 121 % of control and the T/C [13] was 115 % of control. For the same compound, the T/C [14] was 95 % of control and the T/C [16] was 95 % of control.

In the case of `O=c1oc2ccc(O)cc2c2ccccc12`, the T/C (dose: 50.0 mg/kg/injection, schedule: Q04DX003 (ip), vehicle: saline sonified) was 95 % of control, the T/C (dose: 100.0 mg/kg/injection, schedule: Q04DX003 (ip), vehicle: saline sonified) was 100 % of control and the T/C (dose: 200.0 mg/kg/injection, schedule: Q04DX003 (ip), vehicle: saline sonified) was 104 % of control.

In the case of `CB1NN=C(C)c2ccsc21`, the T/C [17] was 105 % of control, the T/C [18] was 91 % of control and the T/C [2] was 95 % of control.

With `CCC1=C2C(=O)c3ccccc3C2=C(C)S(=O)(=O)O1` the T/C [17] was 113 % of control and 118 % of control, the T/C [18] was 118 % of control and the T/C [2] was 122 % of control.

`CC1(C)N=C(N)N=C(N)N1c1ccc(CCCCc2ccc(S(=O)(=O)F)cc2)cc1` was tested, and the T/C (dose: 12.0 mg/kg/injection, schedule: Q01DX009 (ip), vehicle: saline) was 150 % of control.

With `CCOC(=O)C1CSC2(CCCCC2)N1` (stereo unspecified) the T/C [4] was 92 % of control, the T/C [6] was 94 % of control and the T/C [13] was 109 % of control.

In the case of `CC1CCCC(NC(=O)N(CCCl)N=O)C1` (stereo unspecified), the T/C (dose: 0.25 mg/kg/injection, schedule: Q04DX003 (ip), vehicle: saline with Tween-80) was 115 % of control, the T/C (dose: 0.5 mg/kg/injection, schedule: Q04DX003 (ip), vehicle: saline with Tween-80) was 100 % of control and the T/C (dose: 1.0 mg/kg/injection, schedule: Q04DX003 (ip), vehicle: saline with Tween-80) was 95 % of control. The T/C (dose: 16.5 mg/kg/injection, schedule: Q04DX003 (ip), vehicle: saline with Tween-80) was 240 % of control, the T/C [19] was 259 % of control and the T/C (dose: 37.5 mg/kg/injection, schedule: Q04DX003 (ip), vehicle: saline with Tween-80) was 272 % of control. For the same compound, the T/C (dose: 100.0 mg/kg/injection, schedule: Q04DX003 (ip), vehicle: saline with Tween-80) was 177 % of control.

In the case of `COc1ccc(C(=NO)c2ccc(OC)cc2)cc1`, the T/C [5] was 109 % of control, the T/C [6] was 100 % of control and 109 % of control and the T/C [10] was 118 % of control. For the same compound, the T/C [13] was 105 % of control and 109 % of control, the T/C [11] was 118 % of control and the T/C [15] was 120 % of control.

In the case of `CN(C)c1ccc(C(O)C(N)=O)cc1` (stereo unspecified), the T/C (dose: 6.25 mg/kg/injection, schedule: Q01DX009 (ip), vehicle: saline) was 90 % of control and the T/C [3] was 90 % of control.

With `CCC1C/C(=C\NC(N)=O)C(=O)O1` (stereo unspecified) the T/C (dose: 6.25 mg/kg/injection, schedule: Q04DX003 (ip), vehicle: saline with Tween-80) was 96 % of control, the T/C (dose: 12.5 mg/kg/injection, schedule: Q04DX003 (ip), vehicle: saline with Tween-80) was 111 % of control and the T/C [19] was 104 % of control. For the same compound, the T/C (dose: 50.0 mg/kg/injection, schedule: Q04DX003 (ip), vehicle: saline with Tween-80) was 104 % of control and the T/C (dose: 400.0 mg/kg/injection, schedule: Q04DX003 (ip), vehicle: saline with Tween-80) was 86 % of control.
